Measured values as given in patent US9650423B2, “Long peptides of 22-45 amino acid residues that induce and/or enhance antigen specific immune responses” (priority 2000, dated 2017).
Where two headings read alike, the source gives them in different places. Residues, ends and D or L forms follow the SMILES beside them. No end group written: not given here.

Experiments:
HLA-DR2 (DRB1*0201) = experiment: HLA-DR-peptide binding assay; design: species or system human
HLA-DR3 (DRB*0301) = experiment: HLA-DR-peptide binding assay; design: species or system human
HLA-DR4 (DRB*0401) = experiment: HLA-DR-peptide binding assay; design: species or system human
healthy donor PBMC = format: cell-based, human; settings: for mean percentage of wells exceeding medium control + 3 * SD: 10 μg/ml, day 6, two assays
HLA-DR1 (DRB*0101) = target: T1, HLA-DR1 (DRB*0101) (Homo sapiens, UniProt P01903+P01911, A100R/D57E/F55L/F60I/F76Y/I96L/L162R/M171V/P40L/Q125E/R42F/V115G/Y59C); experiment: biochemical; format: binding
T1 construct: endogenous in cells; host or cells: LG2.1 B-lymphoblastic cell line, homozygous for HLA-DR

[1] = test system: HPV16 E7-specific T-helper clones; experiment: HPV16 E7-specific Th-clones: proliferation and IFNγ production; format: cell-based, human; settings: for recognition by HLA-DQ2 restricted Th-clone, IFNγ secretion: Th-clone from HLA-DR3, DQ2 positive PBMC stimulated with peptide E722-56; for response of HLA-DR15 restricted Th-clone to pulsed APC: Th-clone from HLA-DR15, 4 and DQ6,7 positive PBMC raised against peptide E741-62
Description: Peptide-specific T-cell bulk cultures were generated as described previously (van der Burg et al., 1999) using either the E7 22-mer or E7 35-mer peptides. Specific proliferation was measured by incubation of 50,000 responders with an equal amount of irradiated (30Gy) APC (autologous PBMC unless indicated otherwise) and peptide or protein as indicated. E7-peptide and -protein-specific bulk T-cells were cloned by limiting dilution as described previously (van der Burg et al., 1999).
To determine specific excretion of cytokines, T-cell clones were stimulated by incubation of 50.000 T-cells with an equal amount of APC (30Gy) together with 10 μg/ml peptide, control peptide, E7 protein or control protein as indicated. After 24 hours of incubation, supernatant was harvested and replicate wells were pooled. Cytokine production was measured by Enzyme-Linked Immunosorbent Assay (ELISA) as described previously (van der Burg et al., 1999).

[2] = test system: E7 49-57-specific CD8+ T cells; experiment: Vaccination, H-2Db E7 49-57 tetramer staining of spleen cultures; format: in vivo, C57BL/6 mice; settings: B6 mice
Description: Immunization strategies. C57BL/6 mice were injected subcutaneously with either 50 μg E7^49-57 peptide or 150 μg E7^43-77 35-mer dissolved in PBS in order to achieve similar molar levels of the E7^49-57 CTL epitope in both cases. Combinations with various adjuvantia were tested. In the case of IFA and Montanide, the dissolved peptides were emulsified in 50% of these respective substances. ODN-CpG (50 μg/mouse), MPL (10 μg/mouse) and GM-CSF (4 μg/mouse) were all dissolved in PBS and mixed with the peptides before subcutaneous vaccination. The total injected volume was 200 μl/mouse.
T cell cultures. T cells were obtained from immunized mice by culturing spleen cells (5×10^6 cells/well of a 24-wells plate) in complete medium in the presence of 0.5×10^6 E7^49-57-expressing cells (tumor cell line 13.2) or, when indicated, in the presence of D1 cells.
Tetramer staining. Spleen cultures, stimulated with tumor cell line 13.2 for seven days, were transferred at an amount of 40×10^4 per well to 96-well V-bottom microtiter plates and washed twice with PBS/BSA 0.5%. Subsequently, PE-labelled E749-57-containing tetramer was added. After 30 minutes of incubation at room temperature, cells were washed twice with PBS/BSA 0.5% and incubated with FITC-labelled anti CD8b Ab for 30 minutes. Subsequently cells were washed twice in PBS/BSA 0.5%, suspended in PBS/BSA 0.5% containing Propidium Iodide (PI) (0.5) μg/ml) and transferred to tubes. Cell samples were analysed in a FACSCalibur flow cytometer (Becton Dickinson, San Jose, Calif., USA) using CellQuest software. A total of 20×10^4 events was analysed for fluorescence intensity. Debris was gated out using the PI staining and subsequently the CD8^+ fraction was gated. […] As a positive control the HPV16 E7 specific CTL clone 9.5 was used.

[3] = HPV16-E2 peptides, >70 represents undetectable binding, read-out: Binding affinity DR2, IC50
[4] = HPV16-E2 peptides, >70 represents undetectable binding, read-out: Binding affinity DR3, IC50
[5] = HPV16-E2 peptides, >70 represents undetectable binding, read-out: Binding affinity DR4, IC50
[6] = HPV16-E2 peptides, >70 represents undetectable binding, read-out: Binding affinity DR1, IC50

CC[C@H](C)[C@H](NC(=O)[C@H](CCCNC(=N)N)NC(=O)CNC(=O)[C@H](CCCCN)NC(=O)[C@H](Cc1c[nH]cn1)NC(=O)[C@H](CO)NC(=O)[C@H](CO)NC(=O)[C@H](CC(N)=O)NC(=O)[C@@H](N)Cc1ccccc1)C(=O)N[C@@H](CC(N)=O)C(=O)N[C@@H](CS)C(=O)N[C@@H](CC(N)=O)C(=O)N[C@@H](CO)C(=O)N[C@@H](CC(N)=O)C(=O)N[C@H](C(=O)N[C@H](C(=O)N1CCC[C@H]1C(=O)N[C@H](C(=O)N[C@H](C(=O)N[C@@H](Cc1c[nH]cn1)C(=O)N[C@@H](CC(C)C)C(=O)N[C@@H](CCCCN)C(=O)NCC(=O)N[C@@H](CC(=O)O)C(=O)N[C@@H](C)C(=O)N[C@@H](CC(N)=O)C(=O)N[C@H](C(=O)N[C@@H](CC(C)C)C(=O)N[C@@H](CCCCN)C(=O)N[C@@H](CS)C(=O)O)[C@@H](C)O)C(C)C)[C@@H](C)CC)[C@@H](C)O)[C@@H](C)O [E2 271-300] (H-FNSSHKGRINCNSNTTPIVHLKGDANTLKC-OH; N-terminus and C-terminus assumed)
IC50 (HLA-DR2 (DRB1*0201); [3]): 65 µM | IC50 (HLA-DR3 (DRB*0301); [4]): 37 µM | IC50 (HLA-DR4 (DRB*0401); [5]): > 70 µM | mean percentage of wells exceeding medium control + 3 * SD (healthy donor PBMC; donor D8): 88%

AIVTLTYDSEWQRDQFLSQVKIPKTITVSTGFMSI [E2 331-365]
IC50 (HLA-DR1 (DRB*0101); [6]): 8 µM | IC50 (HLA-DR2 (DRB1*0201); [3]): 20 µM | IC50 (HLA-DR3 (DRB*0301); [4]): 10 µM | IC50 (HLA-DR4 (DRB*0401); [5]): 15 µM | mean percentage of wells exceeding medium control + 3 * SD (healthy donor PBMC; donor D3): 100% | mean percentage of wells exceeding medium control + 3 * SD (healthy donor PBMC; donor D7): 75%

E2 31-60: 30-mer, amino acids 31-60 of HPV16 E2 protein (DYWKHMRLECAIYYKAREMGFKHINHQVVP; UniProt P03120 31-60, looked up, fragment)
mean percentage of wells exceeding medium control + 3 * SD (healthy donor PBMC; donor D3): 81% | mean percentage of wells exceeding medium control + 3 * SD (healthy donor PBMC; donor D8): 88%

E2 46-75: 30-mer, amino acids 46-75 of HPV16 E2 protein (AREMGFKHINHQVVPTLAVSKNKALQAIEL; UniProt P03120 46-75, looked up, fragment)
mean percentage of wells exceeding medium control + 3 * SD (healthy donor PBMC; donor D3): 88% | mean percentage of wells exceeding medium control + 3 * SD (healthy donor PBMC; donor D5): 81% | mean percentage of wells exceeding medium control + 3 * SD (healthy donor PBMC; donor D8): 94%

E2 91-120: 30-mer, amino acids 91-120 of HPV16 E2 protein (KWTLQDVSLEVYLTAPTGCIKKHGYTVEVQ; UniProt P03120 91-120, looked up, fragment)
mean percentage of wells exceeding medium control + 3 * SD (healthy donor PBMC; donor D5): 94% | mean percentage of wells exceeding medium control + 3 * SD (healthy donor PBMC; donor D8): 75%

E2 151-180: 30-mer, amino acids 151-180 of HPV16 E2 protein (QVDYYGLYYVHEGIRTYFVQFKDDAEKYSK; UniProt P03120 151-180, looked up, fragment)
mean percentage of wells exceeding medium control + 3 * SD (healthy donor PBMC; donor D3): 81% | mean percentage of wells exceeding medium control + 3 * SD (healthy donor PBMC; donor D8): 81%

E2 166-195: 30-mer, amino acids 166-195 of HPV16 E2 protein (TYFVQFKDDAEKYSKNKVWEVHAGGQVILC; UniProt P03120 166-195, looked up, fragment)
mean percentage of wells exceeding medium control + 3 * SD (healthy donor PBMC; donor D3): 94% | mean percentage of wells exceeding medium control + 3 * SD (healthy donor PBMC; donor D5): 81%

E7 22-56: long peptide, amino acids 22-56 of HPV16 E7 protein (LYCYEQLNDSSEEEDEIDGPAGQAEPDRAHYNIVT; UniProt P03129 22-56, looked up, fragment)
recognition by HLA-DQ2 restricted Th-clone, IFNγ secretion [1]: secreted IFNγ

E7 30-50: peptide, amino acids 30-50 of HPV16 E7 (DSSEEEDEIDGPAGQAEPDRA; UniProt P03129 30-50, looked up, fragment)
recognition by HLA-DQ2 restricted Th-clone, IFNγ secretion [1]: recognized

E7 35-50: core sequence, amino acids 35-50 of HPV16 E7 (EDEIDGPAGQAEPDRA)
recognition by HLA-DQ2 restricted Th-clone, IFNγ secretion [1]: recognized the core sequence

E7 35-55: peptide, amino acids 35-55 of HPV16 E7 (EDEIDGPAGQAEPDRAHYNIV; UniProt P03129 35-55, looked up, fragment)
recognition by HLA-DQ2 restricted Th-clone, IFNγ secretion [1]: recognized

E7 50-62: core sequence, amino acids 50-62 of HPV16 E7 (AHYNIVTFCCKCD)
response of HLA-DR15 restricted Th-clone to pulsed APC [1]: core sequence recognized

E7 protein: recombinant HPV16-E7 protein produced in E. coli [reference compound]
recognition by HLA-DQ2 restricted Th-clone, IFNγ secretion [1]: secreted IFNγ | response of HLA-DR15 restricted Th-clone to pulsed APC [1]: specifically respond

RAHYNIVTF (minimal 9 amino acid long CTL epitope) [E7 49-57, ID; NO, reference compound]
E7 49-57-specific CD8+ T cell response ([2]; prime-boost, IFA): comparable to that after one vaccination | CD8+ T cells stained with tetramers ([2]; vaccinated once, IFA, responders): ~5% | mice responding to the vaccine (tetramer staining) ([2]; vaccinated once, IFA, spleens day 10): 3 out of 9 | number of responders ([2]; vaccinated once, MPL): 4/9 | E7 49-57-specific CTL response ([2]; vaccinated once, Montanide adjuvant): no responses were observed | number of responders ([2]; vaccinated once, ODN-CpG): 4/12 | E7 49-57-specific CTL response ([2]; vaccinated once, combined with anti-CD40 antibody or GM-CSF): no or minimal CTL responses

SSEEEDEIDGPAGQAEPDRAHY [E7 31-52]
IC50 (HLA-DR1 (DRB*0101); read-out: Binding DR1, IC50): > 70 µM | IC50 (HLA-DR2 (DRB1*0201); HPV16-E7 22-mer peptides, >70 indicates undetectable binding, read-out: Binding DR2, IC50): > 70 µM | IC50 (HLA-DR3 (DRB*0301); HPV16-E7 22-mer peptides, >70 indicates undetectable binding, read-out: Binding DR3, IC50): > 70 µM | IC50 (HLA-DR4 (DRB*0401); HPV16-E7 22-mer peptides, >70 indicates undetectable binding, read-out: Binding DR4, IC50): > 70 µM

SSTWHWTGHNVKHKSAIVTLTYDSEWQRDQ [E2 316-345]
IC50 (HLA-DR1 (DRB*0101); [6]): 6 µM | IC50 (HLA-DR2 (DRB1*0201); [3]): 55 µM | IC50 (HLA-DR3 (DRB*0301); [4]): 30 µM | IC50 (HLA-DR4 (DRB*0401); [5]): > 70 µM | mean percentage of wells exceeding medium control + 3 * SD (healthy donor PBMC; donor D7): 94%

tetanus toxoid [TT, reference compound]
mean percentage of wells exceeding medium control + 3 * SD (healthy donor PBMC; donor D1): 100% | mean percentage of wells exceeding medium control + 3 * SD (healthy donor PBMC; donor D2): 100% | mean stimulation index of all test wells of both assays (healthy donor PBMC; donor D3): 25 | mean percentage of wells exceeding medium control + 3 * SD (healthy donor PBMC; donor D3): 100% | mean percentage of wells exceeding medium control + 3 * SD (healthy donor PBMC; donor D4): 100% | mean percentage of wells exceeding medium control + 3 * SD (healthy donor PBMC; donor D5): 100% | mean stimulation index of all test wells of both assays (healthy donor PBMC; donor D6): 139 | mean percentage of wells exceeding medium control + 3 * SD (healthy donor PBMC; donor D6): 100% | mean percentage of wells exceeding medium control + 3 * SD (healthy donor PBMC; donor D7): 100% | mean stimulation index of all test wells of both assays (healthy donor PBMC; donor D8): 59 | mean percentage of wells exceeding medium control + 3 * SD (healthy donor PBMC; donor D8): 100% | stimulation index (SI) (healthy donor PBMC; donors #3, 4, 5 and 7): 13.3-25 | stimulation index (SI) (healthy donor PBMC; donors #3 and 6): ≥ 100
